Test results published in ChEMBL document CHEMBL5331045, “Recent advances in β-lactamase inhibitor chemotypes and inhibition modes” (Eur J Med Chem, 2022).

How the values were obtained:
[1] = Inhibition of Aeromonas hydrophila VIM2 preincubated for 30 mins followed by nitrocefin solution measured by UV based microtitre plate analysis
[2] = Inhibition of Aeromonas hydrophila VIM4 preincubated for 30 mins followed by nitrocefin solution measured by UV based microtitre plate analysis
[3] = Inhibition of Aeromonas hydrophila NDM1 preincubated for 30 mins followed by nitrocefin solution measured by UV based microtitre plate analysis
[4] = Inhibition of Pseudomonas aeruginosa KPC2
Beta-lactamase [5] = target: Beta-lactamase (Pseudomonas aeruginosa (strain ATCC 15692 / PAO1 / 1C / PRS 101 / LMG12228), UniProt P24735); experiment: Inhibition of Pseudomonas aeruginosa AmpC
Sequence of Beta-lactamase (Pseudomonas aeruginosa (strain ATCC 15692 / PAO1 / 1C / PRS 101 / LMG12228), UniProt P24735) (P24735 whole entry): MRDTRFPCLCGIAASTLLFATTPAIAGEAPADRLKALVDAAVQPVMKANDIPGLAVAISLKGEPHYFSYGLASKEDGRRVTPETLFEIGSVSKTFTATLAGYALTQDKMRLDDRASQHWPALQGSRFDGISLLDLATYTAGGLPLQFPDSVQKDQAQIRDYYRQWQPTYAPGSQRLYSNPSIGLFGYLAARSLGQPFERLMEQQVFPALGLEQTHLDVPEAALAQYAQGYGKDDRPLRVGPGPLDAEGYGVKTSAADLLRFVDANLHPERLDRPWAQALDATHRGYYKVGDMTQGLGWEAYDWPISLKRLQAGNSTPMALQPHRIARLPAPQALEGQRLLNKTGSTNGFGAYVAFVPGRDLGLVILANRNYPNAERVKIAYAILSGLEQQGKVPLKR

[6] = Inhibition of Pseudomonas aeruginosa OXA-24
[7] = target: T1, Metallo-beta-lactamase type 2 (Bacteria, UniProt C7C422); experiment: Inhibition of NDM1 (unknown origin) using cefazolin as substrate
T1 sequence (C7C422 whole entry): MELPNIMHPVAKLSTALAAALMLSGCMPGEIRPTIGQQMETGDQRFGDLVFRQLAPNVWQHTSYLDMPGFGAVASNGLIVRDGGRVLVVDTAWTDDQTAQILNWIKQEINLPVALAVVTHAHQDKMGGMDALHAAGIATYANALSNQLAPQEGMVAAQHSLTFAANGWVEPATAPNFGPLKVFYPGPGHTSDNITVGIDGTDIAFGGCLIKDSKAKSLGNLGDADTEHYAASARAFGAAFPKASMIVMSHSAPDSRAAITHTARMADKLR

[8] = Inhibition of Imis (unknown origin) using cefazolin as substrate; parameters: species or system Homo sapiens
[9] = Inhibition of IMP1 (unknown origin) using cefazolin as substrate; parameters: species or system Homo sapiens
[10] = Inhibition of L1 (unknown origin) using cefazolin as substrate; parameters: species or system Homo sapiens
[11] = Binding affinity to Acinetobacter derived cephalosporinase 7 (D24-K383 residues) assessed as inhibition constant
[12] = Inhibition of KPC-2 (unknown origin); parameters: species or system Homo sapiens
Escherichia coli [13] = experiment: Antimicrobial activity against Escherichia coli expressing OXA-23 in presence of piperacillin; type: functional
Escherichia coli [14] = experiment: Antimicrobial activity against Escherichia coli expressing AmpC in presence of piperacillin; type: functional
Escherichia coli [15] = experiment: Antimicrobial activity against Escherichia coli expressing OXA-40 in presence of piperacillin; type: functional
Escherichia coli [16] = experiment: Antimicrobial activity against Escherichia coli expressing DHA-1 in presence of piperacillin; type: functional
Escherichia coli [17] = experiment: Antimicrobial activity against Escherichia coli expressing CMY-2 in presence of piperacillin; type: functional
Escherichia coli [18] = experiment: Antimicrobial activity against Escherichia coli expressing KPC-2 in presence of piperacillin; type: functional
Escherichia coli [19] = experiment: Antimicrobial activity against Escherichia coli expressing TEM1 in presence of piperacillin; type: functional
Escherichia coli [20] = experiment: Antimicrobial activity against Escherichia coli expressing OXA-48 in presence of piperacillin; type: functional
Escherichia coli [21] = experiment: Antimicrobial activity against Escherichia coli expressing OXA-10 in presence of piperacillin; type: functional
Escherichia coli [22] = experiment: Antimicrobial activity against Escherichia coli expressing TEM10 in presence of piperacillin; type: functional
Escherichia coli [23] = experiment: Antimicrobial activity against Escherichia coli expressing CTX-M-15 in presence of piperacillin; type: functional
Escherichia coli [24] = experiment: Antimicrobial activity against Escherichia coli expressing SHV-12 in presence of piperacillin; type: functional
[25] = Inhibition of VIM2 (unknown origin) using nitrocefin as substrate incubated for 30 mins; parameters: species or system Homo sapiens
[26] = Inhibition of IMP1 (unknown origin) using nitrocefin as substrate incubated for 30 mins; parameters: species or system Homo sapiens
[27] = target: T1, Metallo-beta-lactamase type 2; experiment: Inhibition of NDM1 (unknown origin) by spectroscopic analysis
[28] = Inhibition of VIM2 (unknown origin) by spectroscopic analysis; parameters: species or system Homo sapiens
[29] = Inhibition of IMP1 (unknown origin) by spectroscopic analysis; parameters: species or system Homo sapiens
[30] = Inhibition of L1 (unknown origin) by spectroscopic analysis; parameters: species or system Homo sapiens
[31] = Inhibition of Escherichia coli beta-lactamase CTX-M-15 using nitrocefin as substrate measured after 20 mins
[32] = target: T2, Carbapenem-hydrolyzing beta-lactamase KPC (Klebsiella pneumoniae, UniProt Q9F663); experiment: Inhibition of Klebsiella pneumoniae beta-lactamase KPC-2 using nitrocefin as substrate measured after 20 mins
T2 sequence (Q9F663 whole entry): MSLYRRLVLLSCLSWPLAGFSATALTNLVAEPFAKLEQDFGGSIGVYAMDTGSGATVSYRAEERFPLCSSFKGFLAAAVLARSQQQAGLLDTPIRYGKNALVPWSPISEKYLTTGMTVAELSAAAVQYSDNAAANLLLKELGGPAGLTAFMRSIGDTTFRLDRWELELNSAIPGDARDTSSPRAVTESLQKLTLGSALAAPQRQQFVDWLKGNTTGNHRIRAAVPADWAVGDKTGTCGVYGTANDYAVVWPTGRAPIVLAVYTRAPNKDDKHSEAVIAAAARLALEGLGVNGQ

[33] = Inhibition of Klebsiella pneumoniae beta-lactamase CMY-2 using nitrocefin as substrate measured after 20 mins
[34] = Binding affinity to KPC-2 (unknown origin) assessed as inhibition constant; parameters: species or system Homo sapiens
[35] = Binding affinity to CTX-M-14 (unknown origin) assessed as inhibition constant; parameters: species or system Homo sapiens
[36] = Inhibition of Escherichia coli beta-lactamase CMY-2
[37] = Inhibition of Pseudomonas aeruginosa beta-lactamase OXA-2
Beta-lactamase [38] = target: Beta-lactamase (Enterobacter cloacae, UniProt P05364); experiment: Inhibition of Enterobacter cloacae AmpC
Sequence of Beta-lactamase (Enterobacter cloacae, UniProt P05364) (P05364 whole entry): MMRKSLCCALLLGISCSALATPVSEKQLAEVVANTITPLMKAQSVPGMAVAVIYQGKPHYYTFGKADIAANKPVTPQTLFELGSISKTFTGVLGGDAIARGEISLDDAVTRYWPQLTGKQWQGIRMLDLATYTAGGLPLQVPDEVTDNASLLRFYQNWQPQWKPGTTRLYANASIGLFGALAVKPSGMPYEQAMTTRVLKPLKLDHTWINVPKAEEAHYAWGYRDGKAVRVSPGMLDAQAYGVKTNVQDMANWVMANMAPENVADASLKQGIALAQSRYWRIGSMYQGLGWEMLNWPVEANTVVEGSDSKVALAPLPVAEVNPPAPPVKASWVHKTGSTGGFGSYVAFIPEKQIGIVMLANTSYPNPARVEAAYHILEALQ

Beta-lactamase TEM-1 = Beta-lactamase TEM-1 (Escherichia coli, UniProt Q4GY26); experiment: Inhibition of Escherichia coli beta-lactamase TEM-1
Sequence of Beta-lactamase TEM-1 (Q4GY26 whole entry): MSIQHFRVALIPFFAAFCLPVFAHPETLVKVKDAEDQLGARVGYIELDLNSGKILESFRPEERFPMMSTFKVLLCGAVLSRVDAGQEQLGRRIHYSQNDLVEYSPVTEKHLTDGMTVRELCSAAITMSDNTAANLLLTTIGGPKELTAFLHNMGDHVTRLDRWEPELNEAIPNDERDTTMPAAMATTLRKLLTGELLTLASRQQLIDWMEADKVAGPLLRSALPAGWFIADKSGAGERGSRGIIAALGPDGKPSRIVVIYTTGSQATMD

Beta-lactamase OXA-1 = Beta-lactamase OXA-1 (Escherichia coli, UniProt P13661); experiment: Inhibition of Escherichia coli beta-lactamase OXA-1
Sequence of Beta-lactamase OXA-1 (P13661 whole entry): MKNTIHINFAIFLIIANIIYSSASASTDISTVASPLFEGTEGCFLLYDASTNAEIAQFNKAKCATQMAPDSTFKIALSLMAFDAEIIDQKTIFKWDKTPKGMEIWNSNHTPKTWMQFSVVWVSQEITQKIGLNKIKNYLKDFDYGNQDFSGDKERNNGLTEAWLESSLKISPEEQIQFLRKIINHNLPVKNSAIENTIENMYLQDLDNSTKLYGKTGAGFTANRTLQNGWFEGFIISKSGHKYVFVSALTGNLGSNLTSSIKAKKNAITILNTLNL

[39] = Inhibition of Escherichia coli beta-lactamase CTX-M-44
Beta-lactamase CTX-M-14 = Beta-lactamase CTX-M-14 (Escherichia coli, UniProt Q9L5C7); experiment: Inhibition of Escherichia coli beta-lactamase CTX-M-14
Sequence of Beta-lactamase CTX-M-14 (Q9L5C7 whole entry): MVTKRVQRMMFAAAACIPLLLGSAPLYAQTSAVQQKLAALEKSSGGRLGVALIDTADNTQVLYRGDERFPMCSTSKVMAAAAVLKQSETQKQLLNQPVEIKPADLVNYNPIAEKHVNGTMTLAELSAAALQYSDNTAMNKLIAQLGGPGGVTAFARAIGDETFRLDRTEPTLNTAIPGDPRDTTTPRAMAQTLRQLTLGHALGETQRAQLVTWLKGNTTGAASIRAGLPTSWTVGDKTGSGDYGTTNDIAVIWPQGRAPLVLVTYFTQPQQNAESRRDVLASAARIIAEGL

[40] = Inhibition of Escherichia coli beta-lactamase CTX-M-15
[41] = Inhibition of Enterobacter VIM-2 incubated for 15 mins
[42] = Inhibition of Enterobacter IMP-1 incubated for 15 mins
[43] = Inhibition of Enterobacter SHV-5 incubated for 15 mins
[44] = Inhibition of Enterobacter OXA-1 incubated for 15 mins
[45] = Inhibition of Enterobacter NDM-1 incubated for 15 mins
[46] = Inhibition of Enterobacter CTX-M-15 incubated for 15 mins
[47] = Inhibition of Enterobacter KPC-2 incubated for 15 mins
[48] = target: T2, Carbapenem-hydrolyzing beta-lactamase KPC; experiment: Inhibition of Klebsiella pneumoniae beta-lactamase KPC-2
Beta-lactamase OXA-23 = Beta-lactamase OXA-23 (Acinetobacter baumannii, UniProt Q9L4P2); experiment: Inhibition of Acinetobacter baumannii beta-lactamase OXA-23
Sequence of Beta-lactamase OXA-23 (Q9L4P2 whole entry): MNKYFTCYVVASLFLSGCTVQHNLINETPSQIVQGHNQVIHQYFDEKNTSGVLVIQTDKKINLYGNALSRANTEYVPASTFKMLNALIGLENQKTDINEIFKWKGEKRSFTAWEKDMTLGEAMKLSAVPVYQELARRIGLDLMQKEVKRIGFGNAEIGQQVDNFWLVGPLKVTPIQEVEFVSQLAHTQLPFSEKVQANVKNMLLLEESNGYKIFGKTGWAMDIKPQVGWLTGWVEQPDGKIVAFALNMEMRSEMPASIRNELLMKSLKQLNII

[49] = Inhibition of Escherichia coli beta-lactamase TEM-10
[50] = Inhibition of Aeromonas hydrophila IMP1 preincubated for 30 mins followed by nitrocefin solution measured by UV based microtitre plate analysis
[51] = Inhibition of VIM2 (unknown origin) using fluorescent cephalosporin FC5 as substrate incubated for 15 mins followed by substrate addition measured by fluorescence based analysis; parameters: species or system Homo sapiens
[52] = Inhibition of IMP28 (unknown origin) using fluorescent cephalosporin FC5 as substrate incubated for 15 mins followed by substrate addition measured by fluorescence based analysis; parameters: species or system Homo sapiens
[53] = target: T1, Metallo-beta-lactamase type 2; experiment: Inhibition of NDM1 (unknown origin) using fluorescent cephalosporin FC5 as substrate incubated for 15 mins followed by substrate addition measured by fluorescence based analysis

Nn1c(-c2cc3ccccc3[nH]2)n[nH]c1=S
IC50 [1]: 14 µM | IC50 [2]: 19 µM | IC50 [3]: 34 µM

CC1=C[C@H]2CN(C(=O)N2OS(=O)(=O)O)[C@@H]1C(N)=O
IC50 [4]: 0.004 µM | IC50 (Beta-lactamase [5]): 0.014 µM | IC50 [6]: 0.19 µM

O=C(O)C1=C(CSc2nnc(-c3ccc(-n4[se]c5ccccc5c4=O)cc3)[nH]2)CSC2[C@@H](NC(=O)c3ccccc3)C(=O)N12 (stereo not given in full)
IC50 [7]: 2.93 µM | IC50 [8]: 4.86 µM | IC50 [9]: 0.28 µM | IC50 [10]: 6.68 µM

O=C(O)c1cn(CB(O)O)nn1
Ki [11]: 6.1 µM | IC50 [12]: 4.72 µM

C[C@]12CNC(=O)[C@H]1N1C[C@@H](C2)N(OS(=O)(=O)[O-])C1=O.[Na+]
MIC (Escherichia coli [13]): 4 µg/mL | MIC (Escherichia coli [14]): 4 µg/mL | MIC (Escherichia coli [15]): 8 µg/mL | MIC (Escherichia coli [16]): 4 µg/mL | MIC (Escherichia coli [17]): 2 µg/mL | MIC (Escherichia coli [18]): 4 µg/mL | MIC (Escherichia coli [19]): 4 µg/mL | MIC (Escherichia coli [20]): 4 µg/mL | MIC (Escherichia coli [21]): 4 µg/mL | MIC (Escherichia coli [22]): 4 µg/mL | MIC (Escherichia coli [23]): 4 µg/mL | MIC (Escherichia coli [24]): 4 µg/mL

NS(=O)(=O)n1ccc(-c2ccc(C3CCNCC3)cc2)c1C(=O)O
IC50 [25]: 67.3 µM | IC50 [26]: 0.04 µM

O=C(O)c1cccc(C(O)P(=O)(O)O)n1 (stereo not given)
IC50 [27]: 0.322 µM | IC50 [28]: 1.9 µM | IC50 [29]: 7.2 µM | IC50 [30]: 2.05 µM

NS(=O)(=O)C1CC[C@@H]2CN1C(=O)N2OS(=O)(=O)O (stereo not given in full)
IC50 [31]: 0.14 µM | IC50 [32]: 0.044 µM | IC50 [33]: 0.116 µM

CC(c1nnn[nH]1)n1cnc2sc3c(c2c1=O)CCCC3 (single isomer, unassigned)
Ki [34]: 195 µM | Ki [35]: 2540 µM

NC(=O)[C@@H]1CC[C@@H]2CN1C(=O)N2OS(=O)(=O)O [AVIBACTAM]
IC50 [36]: 0.044 µM | IC50 [37]: 0.485 µM | IC50 (Beta-lactamase [38]): 0.923 µM | IC50 (Beta-lactamase TEM-1): 0.007 µM | IC50 (Beta-lactamase OXA-1): 0.13 µM | IC50 [39]: 0.004 µM | IC50 (Beta-lactamase CTX-M-14): 0.003 µM | IC50 [40]: 0.001 µM

CCC(=O)N[C@H]1Cc2cccc(C(=O)O)c2OB1O [LEDABORBACTAM]
IC50 [41]: 9.04 µM | IC50 [42]: > 100 µM | IC50 [43]: 0.368 µM | IC50 [44]: 0.066 µM | IC50 [45]: 38.1 µM | IC50 [46]: 0.018 µM | IC50 [47]: 0.08 µM

NCCONC(=O)[C@@H]1CC[C@@H]2CN1C(=O)N2OS(=O)(=O)O [NACUBACTAM]
IC50 [36]: 0.015 µM | IC50 [37]: 1.07 µM | IC50 (Beta-lactamase [38]): 0.845 µM | IC50 (Beta-lactamase TEM-1): 0.026 µM | IC50 (Beta-lactamase OXA-1): 3.05 µM | IC50 [39]: 0.022 µM | IC50 (Beta-lactamase CTX-M-14): 0.01 µM | IC50 [40]: 0.013 µM | IC50 [48]: 0.869 µM | IC50 (Beta-lactamase OXA-23): 46.4 µM | IC50 [49]: 0.096 µM | IC50 [50]: 1.4 µM

O=C(O)CN(CC(=O)O)CC(=O)O [NITRILOTRIACETIC ACID]
IC50 [51]: 2.4 µM | IC50 [52]: 112 µM | IC50 [53]: 1.3 µM
